The source of these data is patent US12247064B2, “Modified ligand-gated ion channels and methods of use” (Howard Hughes Medical Institute, priority 2017, dated 2025).

Molecules are shown by their SMILES. Like-named read-outs stand apart in the source and are kept apart here.

One assay addresses T1, α7GlyR Q79G G175K Y115F (Homo sapiens, UniProt P36544, G175K/Q79G/Y115F).
T1 construct: expressed in transfected cells
In words: Agonist potency at chimeric channel. The conditions noted are these: Table 6. The assay is classed as cell-based.

The target of another assay is T2, α7GlyR W77F Q79G G175K (Homo sapiens, UniProt P36544, G175K/Q79G/W77F).
T2 construct: expressed in transfected cells
T2 sequence (P36544 with tags, fused parts or gaps W77F/Q79G/G175K): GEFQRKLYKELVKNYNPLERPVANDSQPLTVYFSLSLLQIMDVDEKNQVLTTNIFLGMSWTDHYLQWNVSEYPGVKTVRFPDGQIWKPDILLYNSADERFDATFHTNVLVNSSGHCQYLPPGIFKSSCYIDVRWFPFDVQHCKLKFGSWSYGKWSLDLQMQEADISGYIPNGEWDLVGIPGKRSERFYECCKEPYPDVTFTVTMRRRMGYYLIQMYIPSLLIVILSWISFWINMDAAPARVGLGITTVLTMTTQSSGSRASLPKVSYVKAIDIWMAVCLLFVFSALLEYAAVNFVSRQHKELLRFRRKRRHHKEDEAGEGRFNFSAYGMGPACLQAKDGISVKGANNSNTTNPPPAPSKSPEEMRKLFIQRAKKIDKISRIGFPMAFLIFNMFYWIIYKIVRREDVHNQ
As to the kind of experiment: Agonist potency at chimeric channel. The assay is classed as cell-based. The conditions noted are these: Table 6.

A further assay addresses α7-5HT3 (Homo sapiens, UniProt P36544, M226I/T225I).
The target in the next assay is T3, 5HT3-R (Homo sapiens, UniProt P46098).
T3 sequence (P46098 24-478): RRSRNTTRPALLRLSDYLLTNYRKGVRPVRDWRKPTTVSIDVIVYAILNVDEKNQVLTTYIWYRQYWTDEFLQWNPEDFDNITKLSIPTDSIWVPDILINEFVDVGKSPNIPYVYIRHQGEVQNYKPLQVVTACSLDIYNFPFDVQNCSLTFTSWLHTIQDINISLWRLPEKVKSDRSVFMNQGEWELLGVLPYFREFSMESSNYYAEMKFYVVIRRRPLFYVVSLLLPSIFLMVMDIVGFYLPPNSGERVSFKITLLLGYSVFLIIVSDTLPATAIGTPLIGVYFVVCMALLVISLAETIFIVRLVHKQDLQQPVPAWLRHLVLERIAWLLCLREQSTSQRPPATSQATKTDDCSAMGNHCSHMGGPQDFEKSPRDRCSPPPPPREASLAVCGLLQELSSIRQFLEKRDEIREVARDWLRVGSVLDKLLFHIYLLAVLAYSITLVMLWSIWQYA
In words: Agonist potency at 5HT3-R. The assay is classed as cell-based.

In assay [1] the target is T4, α4β2 nAChR (Homo sapiens, UniProt P17787+P43681). The format is cell-based. The source says: FIGS. 14A-14J show ultrapotent chemogenetic agonists (uPSEMs). […] LED: lowest effective dose for mice in SNr rotation assay. Units: nM; parentheses: SEM. Selectivity relative to PSAM^4-GlyR in bold. […] (FIG. 14E) Response amplitude normalized to ACh.
T4 sequence (P43681 29-627 limits assumed): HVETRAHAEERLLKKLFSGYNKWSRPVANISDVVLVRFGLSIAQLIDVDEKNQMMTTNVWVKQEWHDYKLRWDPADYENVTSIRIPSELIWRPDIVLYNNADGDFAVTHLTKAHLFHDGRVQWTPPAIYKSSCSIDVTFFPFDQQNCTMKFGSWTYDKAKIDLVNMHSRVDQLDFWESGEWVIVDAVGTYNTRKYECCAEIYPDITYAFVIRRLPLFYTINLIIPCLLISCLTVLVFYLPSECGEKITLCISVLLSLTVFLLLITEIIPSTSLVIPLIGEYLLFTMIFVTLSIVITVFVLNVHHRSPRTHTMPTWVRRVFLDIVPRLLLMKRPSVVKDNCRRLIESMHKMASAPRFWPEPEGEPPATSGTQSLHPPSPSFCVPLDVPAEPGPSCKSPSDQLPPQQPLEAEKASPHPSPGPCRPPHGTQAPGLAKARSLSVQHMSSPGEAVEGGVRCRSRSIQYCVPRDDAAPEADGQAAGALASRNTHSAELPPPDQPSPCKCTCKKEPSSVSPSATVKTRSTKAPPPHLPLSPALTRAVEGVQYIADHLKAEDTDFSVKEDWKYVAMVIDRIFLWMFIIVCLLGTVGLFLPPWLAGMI
T4 sequence (P17787 26-502): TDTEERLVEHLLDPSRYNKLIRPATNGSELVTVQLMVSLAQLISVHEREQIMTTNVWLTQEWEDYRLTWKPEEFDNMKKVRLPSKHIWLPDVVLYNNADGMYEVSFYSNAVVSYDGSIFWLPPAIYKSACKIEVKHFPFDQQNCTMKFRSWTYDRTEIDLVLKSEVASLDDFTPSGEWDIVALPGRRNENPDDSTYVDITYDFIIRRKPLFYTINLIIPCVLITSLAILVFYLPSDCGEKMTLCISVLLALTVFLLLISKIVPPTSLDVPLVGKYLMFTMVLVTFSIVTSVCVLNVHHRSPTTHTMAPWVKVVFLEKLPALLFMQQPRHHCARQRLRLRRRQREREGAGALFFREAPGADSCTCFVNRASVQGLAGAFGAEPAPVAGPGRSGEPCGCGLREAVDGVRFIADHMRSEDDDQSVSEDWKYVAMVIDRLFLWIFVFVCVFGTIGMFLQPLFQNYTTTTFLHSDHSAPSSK
Assay [2] deals with T4, α4β2 nAChR. In words: Agonist potency at α4β2 nAChR.
The target in another assay is α7-GlyR (Homo sapiens, UniProt P36544).
α7-GlyR, sequence (P36544 with tags, fused parts or gaps): as the sequence (P36544 with tags, fused parts or gaps W77F/Q79G/G175K) above, with F55W, G57Q, K153G counted along it
The subject of assay [3] is mice expressing PSAM^4-GlyR unilaterally in SNr. In words: Unilateral SNr silencing rotation assay. The assay is classed as in vivo, mouse.
A further assay addresses T5, α7GlyR P216I (Homo sapiens, UniProt P36544, P216I).
T5 construct: expressed in transfected cells
As to the kind of experiment: Agonist potency at chimeric channel. The assay is classed as cell-based.

The target of the next assay is T6, α7GlyR G175K (Homo sapiens, UniProt P36544, G175K).
T6 construct: expressed in transfected cells
T6 sequence (P36544 with tags, fused parts or gaps G175K): as the sequence (P36544 with tags, fused parts or gaps W77F/Q79G/G175K) above, with F55W, G57Q counted along it
In words: Agonist potency at chimeric channel. The format is cell-based.

Another assay concerns the target T7, α7^R21D,E41R-5HT3 (Homo sapiens, UniProt P36544, E41R/M226I/R27D/T225I).
T7 construct: expressed in transfected cells; host or cells: HEK cells
As to the kind of experiment: Whole cell recordings in HEK cells expressing charge reversal channel. Particulars: V5 epitope tag. The assay is classed as cell-based.

Assay [4] relates to α7GlyR G175K / A298G mutant chimeric channels. The assay is classed as cell-based, human. The conditions noted are these: read-out: Agonist potency.
Another assay deals with α7GABAc W298A (GABAA-ρ). In words: Agonist potency at α7GABAc channel with W298A (Table 7). Particulars: a7GABAc Q79G L141F W298A. The format is cell-based, human.
A further assay concerns the target T8, α7^L131A-GlyR (Homo sapiens, UniProt P36544, L131A).
T8 construct: expressed in transfected cells
The format is cell-based. Particulars: over α7-GlyR.

Assay [5] deals with cortical neurons expressing PSAM^4-5HT3 HC. In words: Chemogenetic activation of cortical neurons expressing PSAM^4-5HT3 HC. The format is cell-based, mouse. An excerpt: FIGS. 12A-12F show chemogenetic perturbation of cortical neuron activity. […] FIG. 12C) Cortical layer 2/3 neuron membrane properties were similar in PSAM^4-GlyR expressing neurons and intermingled untransfected control neurons. […] FIG. 12F) Cortical layer 2/3 neuron membrane properties are similar in PSAM^4-5HT3 HC expressing neurons and intermingled untransfected control neurons. Data are mean±SEM. Mann Whitney U-test, n.s. P>0.05, ***P<0.001.
Chemogenetic perturbation of cortical neuron activity was evaluated. […] Cortical layer 2/3 neuron membrane properties were similar in PSAM^4-GlyR expressing neurons and intermingled untransfected control neurons. […] Cortical layer 2/3 neuron membrane properties are similar in PSAM^4-5HT3 HC expressing neurons and intermingled untransfected control neurons. See, e.g., FIG. 12.

A further assay deals with T9, α7^Q79A-GlyR (Homo sapiens, UniProt P36544, Q79A).
T9 construct: expressed in transfected cells; host or cells: HEK cells
T9 sequence (P36544 with tags, fused parts or gaps Q79A): as the sequence (P36544 with tags, fused parts or gaps W77F/Q79G/G175K) above, with F55W, G57A, K153G counted along it
The assay is classed as cell-based. Particulars: HEK cells; Table 2; read-out: Mean EC50 and SEM in parentheses.

For a further assay, the target named is T10, α7^Q79G-5HT3 (Homo sapiens, UniProt P36544, M226I/Q79G/T225I).
T10 construct: expressed in transfected cells; host or cells: HEK cells
T10 sequence (P36544 with tags, fused parts or gaps Q79G/T225I/M226I limits assumed): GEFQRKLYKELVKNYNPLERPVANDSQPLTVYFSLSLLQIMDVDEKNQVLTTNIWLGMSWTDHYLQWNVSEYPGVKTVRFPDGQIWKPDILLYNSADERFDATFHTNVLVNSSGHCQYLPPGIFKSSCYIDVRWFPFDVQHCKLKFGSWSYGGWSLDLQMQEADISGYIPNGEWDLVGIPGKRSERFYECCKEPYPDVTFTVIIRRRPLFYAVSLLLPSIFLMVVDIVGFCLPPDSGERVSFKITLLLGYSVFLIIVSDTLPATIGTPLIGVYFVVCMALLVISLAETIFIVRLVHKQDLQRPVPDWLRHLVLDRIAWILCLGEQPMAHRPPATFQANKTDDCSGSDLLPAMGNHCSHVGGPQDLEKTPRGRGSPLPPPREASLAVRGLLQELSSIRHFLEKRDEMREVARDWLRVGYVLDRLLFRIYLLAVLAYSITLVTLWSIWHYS
The format is cell-based, human α7 nAChR LBD, murine 5HT3 IPD. The conditions noted are these: HEK cells; Table 1.

A further assay concerns the target T11, α7^Q79G-GlyR (Homo sapiens, UniProt P36544, Q79G).
T11 construct: expressed in transfected cells; host or cells: HEK cells
The format is cell-based. The conditions noted are these: HEK cells; Table 2; read-out: Mean EC50 and SEM in parentheses.

Another assay deals with T12, α7^Q79S-5HT3 (Homo sapiens, UniProt P36544, M226I/Q79S/T225I).
T12 construct: expressed in transfected cells; host or cells: HEK cells
T12 sequence (P36544 with tags, fused parts or gaps Q79S/T225I/M226I limits assumed): as the sequence (P36544 with tags, fused parts or gaps Q79G/T225I/M226I limits assumed) above, with G57S counted along it
The format is cell-based, human α7 nAChR LBD, murine 5HT3 IPD. The conditions noted are these: HEK cells; Table 1.

The target of a further assay is T13, α7^Q79A-5HT3 (Homo sapiens, UniProt P36544, M226I/Q79A/T225I).
T13 construct: expressed in transfected cells; host or cells: HEK cells
T13 sequence (P36544 with tags, fused parts or gaps Q79A/T225I/M226I limits assumed): as the sequence (P36544 with tags, fused parts or gaps Q79G/T225I/M226I limits assumed) above, with G57A counted along it
The assay is classed as cell-based, human α7 nAChR LBD, murine 5HT3 IPD. Particulars: HEK cells; Table 1.

A further assay addresses T14, α7-GlyR^A298G (Homo sapiens, UniProt P36544, A298G).
T14 construct: expressed in transfected cells; host or cells: HEK cells
The assay is classed as cell-based. The conditions noted are these: HEK cells; Table 2; read-out: Mean EC50 and SEM in parentheses.

[6] abbreviates: α7GlyR Q79G A298G Y115F K395 K396A.

α7-5HT3, sequence (P36544 with tags, fused parts or gaps T225I/M226I limits assumed): as the sequence (P36544 with tags, fused parts or gaps Q79G/T225I/M226I limits assumed) above, with G57Q counted along it
T14 sequence (P36544 with tags, fused parts or gaps, stated change not applied): as the sequence (P36544 with tags, fused parts or gaps W77F/Q79G/G175K) above, with F55W, G57Q, K153G, A276G counted along it
T11 sequence (P36544 with tags, fused parts or gaps Q79G): as the sequence (P36544 with tags, fused parts or gaps W77F/Q79G/G175K) above, with F55W, K153G counted along it
T8 sequence (P36544 with tags, fused parts or gaps L131A limits assumed): as the sequence (P36544 with tags, fused parts or gaps W77F/Q79G/G175K) above, with F55W, G57Q, L109A, K153G counted along it
T1 sequence (P36544 with tags, fused parts or gaps Q79G/Y115F/G175K): as the sequence (P36544 with tags, fused parts or gaps W77F/Q79G/G175K) above, with F55W, Y93F counted along it
T5 sequence (P36544 with tags, fused parts or gaps P216I): as the sequence (P36544 with tags, fused parts or gaps W77F/Q79G/G175K) above, with F55W, G57Q, K153G, P194I counted along it
T7 sequence (P36544 with tags, fused parts or gaps R27D/E41R/T225I/M226I): as the sequence (P36544 with tags, fused parts or gaps Q79G/T225I/M226I limits assumed) above, with R5D, E19R, G57Q counted along it

Consider `c1ccc2c(c1)Sc1ccccc1N2CC1CN2CCC1CC2` (stereo not shown) [Mequitazine, reference compound], for which the EC50 is above 10000 nM at α7GlyR Q79G G175K Y115F; 150 nM on α7GlyR W77F Q79G G175K; above 30000 nM at α7-5HT3 (read-out: Potency, Table 6).

Regarding `CCCOc1cnc2cc3c(cc2n1)C1CNCC3C1` (stereo not shown) [compound 817], the EC50 on 5HT3-R (read-out: EC50MP) was 1500 ± 1000 nM; at α4β2 nAChR [2] (read-out: EC50MP) it was above 30000 nM; at α7-5HT3 (read-out: EC50MP), above 100000 nM; at α7-GlyR it was above 100000 nM. Further, at α4β2 nAChR [1], the “effect on α4β2 nAChR” value was “inhibits”. Besides, the “α4β2 nAChR agonism” value on α4β2 nAChR [2] is “do not show evident α4β2 nAChR agonism”. Further, the In vivo potency in assay [3] (SNr silencing rotation assay in mice) turned out to be 0.1 mpk.

As for `CN1CCCC1c1cccnc1` (stereo not shown) [Nicotine], the results for the increased potency on α7GlyR P216I and at α7GlyR G175K were above 4 fold and 10 fold, respectively.

Turning to `O=C(NC1CN2CCC1CC2)c1ccc(Cl)cc1` (stereo not shown) [PNU-282987], the whole cell responses result at α7^R21D,E41R-5HT3 is listed as “potent responses”. Further, the EC50 came to 9 nM in [4] (α7GlyR Q79G A298G G175K Y115F); 250 nM in [4] (α7GlyR Q79G A298G P216I); 110 nM in [4] (setting [6]); 0.36 nM in [4] (α7GlyR Q79G G175K A298G); 1630 nM in [4] (α7GlyR Q79G W77F A298G); 340 nM in [4] (α7GlyR R27D E41R Q79G Y115F).

In the case of `c1cnc2cc3c(cc2n1)[C@@H]1CNC[C@H]3C1` [Varenicline], the EC50 on 5HT3-R (5HT3-R, Table 10) is 1400 nM; with α7GABAc W298A (GABAA-ρ) it was 6270 nM; in assay [4] (α7GlyR Q79G A298G G175K Y115F), 2370 nM; in assay [4] (setting [6]) it was above 30000 nM; in assay [4] (α7GlyR Q79G G175K A298G) it was 22 nM; in assay [4] (α7GlyR Q79G W77F A298G), 3660 nM. Besides, the EC50 in [4] (α7GlyR R27D E41R Q79G Y115F) was above 30000 nM. On α7^L131A-GlyR, the enhanced potency was determined as 8 fold. Besides, in assay [5], the “membrane potential and firing” value is “depolarizes and elicits firing”. Further, the rotation response result in assay [3] (low doses, intraperitoneal, not in sham operated or EGFP-alone mice) is on record as “elicit contraversive rotation”. In addition, the “doses at which circling contralateral to the silenced SNr was seen” value in assay [3] (mice) is “above 0.1 mpk”. In assay [3] (mice), the “improvement in potency over anti-nicotine activity” value was 10 fold. In addition, the “tachyphylaxis of the chemogenetic response” value in assay [3] (two doses separated by 5 hours) was “no tachyphylaxis”.

As for `Cn1cc(C(=O)C(=O)NC2CN3CCC2CC3)c2ccccc21` (stereo not shown) [RS56812], the EC50 at α7^Q79A-GlyR came out at 3500 nM; at α7^Q79G-5HT3, 1400 nM; on α7^Q79G-GlyR, 2000 nM; at α7-5HT3 (read-out: Mean EC50, HEK cells, Table 1), 10000 nM; on α7^Q79S-5HT3, 5700 nM; on α7-GlyR, 6500 nM. Moreover, the figures for the EC50 on α7^Q79A-5HT3 and at α7-GlyR^A298G were 6800 nM and 2300 nM, respectively.
